Assay results from patent US10183014B2, “Ocular formulations for drug-delivery and protection of the anterior segment of the eye” (PanOptica, Inc., priority 2014, dated 2019).
“And” between values parts separate entries of the source, which are not always exact repeats. Equal entries are not always repeated. Where two headings read alike, the source gives them in different places.

Key:
[1] = Ocular pharmacokinetics of formulations, Example 20-4; type: in vivo, Dutch Belted rabbits; settings: Dutch Belted, rabbit, topical, PSD 30 μm/XL, HPMC 0.08%, glycerol 2.5%, HEC 0.2%, VitK3 1 μM, pH ≈7.5, QD, Day 5, 1 hr post dose
Method: The study design (Table 18-1) consisted of forty-nine (49) Dutch Belted rabbits, each receiving a 30 μL bilateral topical ocular dose.
Ocular sampling occurred one hour following the first daily dose on Day 5 for all groups. Whole blood samples using K2EDTA as an anticoagulant were collected from all animals on Day 5, 1 hour post dose. The whole blood was placed on ice until samples were spun in a centrifuge to separate the plasma. Aqueous humor, conjunctiva, cornea, central retina, peripheral retina, central choroid, and peripheral choroid samples were collected following necropsy. Samples were then frozen at −70° C. or lower. For all Groups 1-16, plasma, central retina, central choroid, and cornea samples were assayed for PAN-90806.

[2] = Particle size distribution by laser diffraction light scattering; type: physicochemical; settings: API form Freebase
Method: Particle size distribution can be analyzed using laser diffraction light scattering, e.g., with a Horiba LA-950 V2. Generic assumptions are made in setting conditions and the refractive index value. The distributions are volume based. Sample density is adjusted to a generic range of percent transmission on the blue LED light source. A small sample cell (filled with water) can be used rather than the flow through cell, to minimize sample quantity.
Particle size distribution was analyzed using laser diffraction light scattering with a Horiba LA-950 V2. Generic assumptions were made in setting conditions and the refractive index value. The distributions were volume based. Sample density was adjusted to a generic range of percent transmission on the blue LED light source. A small sample cell (filled with water) was used rather than the flow through cell, to minimize sample quantity.

[3] = target: T1, EGFR (Homo sapiens, UniProt P00533); test: EGFR tyrosine phosphorylation assay in hTCEpi cells with a second active agent; type: cell-based; settings: vitamin K 50 μM, nicotinic acid 10 μM or nicotinamide 10 μM, 4 hours pre-treatment; EGF 50 ng/ml
T1 construct: endogenous in cells; host or cells: hTCEpi (immortalized corneal epithelial cells)
Method: An EGFR tyrosine assay in corneal epithelial cells is run to determine if Vitamin K or nicotinic acid/nicotinamide can overcome inhibition of EGFR and if there is an increase in EGFR activity. […] Cells are harvested cells and immunoblotted for determination of phosphorylated EGFR (tyrosine 1068 and tyrosine 1045) and total EGFR concentration which was used to determine receptor activity (IC50).
The cells were then incubated with EGF (50 ng/ml) for 15 minutes. Cells were harvested and cell lysates were immunoblotted for determination of phosphorylated EGFR (tyrosine 1068 and tyrosine 1045) and total EGFR concentration.

[4] = excipient PVP K-29/32, roller speed high, media size 0.8 mm, particles under storage 1 day, RT
[5] = excipient PVP K-29/32, roller speed high, media size 0.8 mm, particles under storage 15 days, RT
[6] = excipient Pluronic F-127, milling not given, particles under storage 6 days, 40° C.
[7] = excipient Pluronic F-127, roller speed high, media size 0.8 mm, particles under storage 3 days, RT
[8] = excipient Pluronic F-127, roller speed low, media size 3 mm
[9] = excipient Tween 80, milling not given
[10] = excipient Tween 80, roller speed high, media size 0.8 mm, particles under storage 28 days, RT

T1 sequence (P00533 25-1210): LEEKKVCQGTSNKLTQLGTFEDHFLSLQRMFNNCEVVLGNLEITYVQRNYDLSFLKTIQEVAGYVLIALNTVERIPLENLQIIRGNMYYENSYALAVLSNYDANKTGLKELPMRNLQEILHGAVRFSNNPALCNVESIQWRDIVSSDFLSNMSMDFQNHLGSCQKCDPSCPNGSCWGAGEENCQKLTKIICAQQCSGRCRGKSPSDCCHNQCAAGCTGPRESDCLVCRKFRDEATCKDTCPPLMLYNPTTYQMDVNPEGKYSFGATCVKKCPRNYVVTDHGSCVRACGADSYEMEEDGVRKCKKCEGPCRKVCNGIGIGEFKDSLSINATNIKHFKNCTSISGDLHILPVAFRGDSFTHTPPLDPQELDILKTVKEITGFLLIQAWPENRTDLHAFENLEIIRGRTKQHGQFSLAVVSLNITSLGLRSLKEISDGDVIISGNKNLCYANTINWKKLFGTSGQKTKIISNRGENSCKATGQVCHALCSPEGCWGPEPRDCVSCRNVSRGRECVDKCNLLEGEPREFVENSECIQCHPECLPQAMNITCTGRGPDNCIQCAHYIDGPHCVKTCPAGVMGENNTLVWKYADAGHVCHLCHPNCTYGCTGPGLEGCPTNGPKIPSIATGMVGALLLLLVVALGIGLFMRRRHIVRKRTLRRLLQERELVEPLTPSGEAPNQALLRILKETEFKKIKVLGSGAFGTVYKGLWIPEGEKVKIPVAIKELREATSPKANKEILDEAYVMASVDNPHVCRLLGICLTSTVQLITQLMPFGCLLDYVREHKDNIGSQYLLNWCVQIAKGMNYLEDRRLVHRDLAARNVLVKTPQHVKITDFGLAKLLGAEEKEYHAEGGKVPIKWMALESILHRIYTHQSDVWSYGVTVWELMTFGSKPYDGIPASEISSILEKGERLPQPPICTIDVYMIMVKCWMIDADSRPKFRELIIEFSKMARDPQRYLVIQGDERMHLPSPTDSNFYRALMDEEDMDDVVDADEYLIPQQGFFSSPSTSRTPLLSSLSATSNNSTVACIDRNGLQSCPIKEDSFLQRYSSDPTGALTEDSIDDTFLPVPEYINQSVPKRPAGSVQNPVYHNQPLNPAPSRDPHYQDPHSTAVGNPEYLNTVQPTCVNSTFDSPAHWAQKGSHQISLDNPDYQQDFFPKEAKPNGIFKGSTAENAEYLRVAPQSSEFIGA

## NC(=O)c1c(OCc2c(F)cc(Br)cc2F)nsc1NC(=O)NCCCCN1CCCC1 [Formula II]
[1]; central choroid, 4 mg/mL (30 μL per eye, bilateral), Group 4: 4 mg/mL FB suspension, read-out: Central Choroid concentration
  concentration at 1 h: 203 nM
[1]; central choroid, Group 5: 6 mg/mL FB suspension, read-out: Central Choroid concentration
  concentration at 1 h: 203 nM
[1]; central retina, 4 mg/mL (30 μL per eye, bilateral), Group 4: 4 mg/mL FB suspension, read-out: Central Retina concentration
  concentration at 1 h: 38.4 nM
[1]; central retina, Group 5: 6 mg/mL FB suspension, read-out: Central Retina concentration
  concentration at 1 h: 47.9 nM
[1]; cornea, 4 mg/mL (30 μL per eye, bilateral), Group 4: 4 mg/mL FB suspension, read-out: Cornea concentration
  concentration at 1 h: 21300 nM
[1]; cornea, Group 5: 6 mg/mL FB suspension, read-out: Cornea concentration
  concentration at 1 h: 23800 nM
[1]; plasma, 4 mg/mL (30 μL per eye, bilateral), Group 4: 4 mg/mL FB suspension, read-out: Plasma concentration
  concentration at 1 h: 3.27 nM
[1]; plasma, Group 5: 6 mg/mL FB suspension, read-out: Plasma concentration
  concentration at 1 h: 3.91 nM
[2]; [4]
  PSD (Particle Size Distribution) Mean: ~210 nm
  PSD (Particle Size Distribution) Median: ~150 nm
[2]; [5]
  PSD (Particle Size Distribution) Mean: ~170 nm
  PSD (Particle Size Distribution) Median: ~130 nm
[2]; [6]
  PSD (Particle Size Distribution) Mean: ~3100 nm
  PSD (Particle Size Distribution) Median: ~2500 nm
[2]; [7]
  PSD (Particle Size Distribution) Mean: ~130 nm
  PSD (Particle Size Distribution) Median: ~120 nm
[2]; [8]
  PSD (Particle Size Distribution) Mean: ~8100 nm and ~4700 nm
  PSD (Particle Size Distribution) Median: ~6200 nm and ~4400 nm
[2]; [9]
  PSD (Particle Size Distribution) Mean: ~2000 nm
  PSD (Particle Size Distribution) Median: ~300 nm
[2]; [10]
  PSD (Particle Size Distribution) Mean: ~370 nm
  PSD (Particle Size Distribution) Median: ~160 nm
[2]; excipient Tween 80, roller speed low, media size 3 mm
  PSD (Particle Size Distribution) Median: ~5500 nm and ~3900 nm and ~3700 nm and ~3500 nm

## NC(=O)c1cccnc1 [nicotinamide]
[3]
  Effect on Formula I or II compound-mediated EGFR inhibition: overcome

## O=C(O)c1cccnc1 [nicotinic acid]
[3]
  Effect on Formula I or II compound-mediated EGFR inhibition: overcome
